Counter-ions that a name gives are not always drawn. Like-named read-outs stand apart in the source and are kept apart here.
Tests used:
OC43 = experiment: Drug screening: OC43 nucleoprotein staining in infected A549-mRuby cells; type: cell-based, human beta coronavirus OC43; settings: for activity at 10 µM: Betacoronavirus 1, OC43, 96 h
Method: A549-mRuby cells were seeded (3,000 cells per well) in nine 384-well plates using Multidrop combi. Cells were seeded in a final volume of 30 μl with DMEM+10% BCS. The following day, 20 μl of OC43 were added (MOI 0.3) and incubated at 33° C., 5% CO2 for 1 hour. 50 nl from the Selleck FDA-approved drug library (cat #L1300, Selleck) were added (1:1,000 dilution). Two columns (32 wells) were left uninfected and two columns were treated with DMSO and virus (no drug control). Cells were imaged using the IncuCyte S3 to measure cell numbers at day 0. Cells were incubated for 4 days at 33° C., 5% CO2 and were stained for OC43 nucleoprotein. All the following steps were performed at room temperature. Cells were fixed in 50 μl 4% PFA/PBS for 15 min, blocked with 50 μl 10% BSA+0.5% Triton X-100 in PBS for 30 minutes, stained with 50 μl anti-OC43 (cat #MAB9013, Milipore) diluted 1:2,000 in 2% BSA+0.1% Triton X-100 in PBS for 1 hour, washed with 50 μl PBS three times, stained with anti-mouse-AlexaFluor488 diluted 1:1,000 in 2% BSA+0.1% Triton X-100 in PBS for 1 hour, washed with 50 μl PBS three times and imaged on the IncuCyte S3 (day 4). The screen was performed twice.
(§1) The following parameters were extracted from the images: number of cells at day 0, number of cells at day 4 and total OC43 staining intensity at day 4. For analysis, OC43 staining intensity was normalized to the number of cells in the well and further normalized to the mean of the no drug controls, which was set to 100. […] For each plate, a drug was considered as a putative hit if it reduced OC43 staining by over 3 standard deviations from the mean of the no drug controls. Drugs were considered hits if they were not toxic and reduced OC43 staining by over 3 standard deviations in both repeats.
(§2) A library of 1,900 clinically used drugs was screened, the drugs either approved for human use or having extensive safety data in humans (Phase 2 or 3 clinical trials), for their ability to inhibit OC43 infection of the human lung epithelial cell line A549 (expressing an H2B-mRuby nuclear reporter). One day after plating, cells were infected at an MOI of 0.3, incubated at 33° C. for 1 hour and drugs were added to a final concentration of 10 μM. Cells were then incubated at 33° C. for 4 days, fixed and stained for the presence of the viral nucleoprotein. The cells were imaged at day 0 (following drug addition) and day 4 (after staining) to determine the drugs effect on cell growth and OC43 infection.

A549-mRuby cells = experiment: Drug screening: effect on cell growth (cell number day 4 / day 0); settings: 10 μM drug; for Growth_1: number of cells at day 4 divided by number of cells at day 0 / toxic_1: repeat #1; for Growth_2: number of cells at day 4 divided by number of cells at day 0 / toxic_2: repeat #2
Method: A549-mRuby cells were seeded (3,000 cells per well) in nine 384-well plates using Multidrop combi. Cells were seeded in a final volume of 30 μl with DMEM+10% BCS. The following day, 20 μl of OC43 were added (MOI 0.3) and incubated at 33° C., 5% CO2 for 1 hour. 50 nl from the Selleck FDA-approved drug library (cat #L1300, Selleck) were added (1:1,000 dilution). Two columns (32 wells) were left uninfected and two columns were treated with DMSO and virus (no drug control). Cells were imaged using the IncuCyte S3 to measure cell numbers at day 0. Cells were incubated for 4 days at 33° C., 5% CO2 and were stained for OC43 nucleoprotein. All the following steps were performed at room temperature. […] The screen was performed twice.
as §1, §2

[1] = 10 μM drug, MOI 0.3, 4 days, normalized to no-drug controls in the same plate, repeat #1, read-out: OC43_1: % staining of OC43 in screen repeat #1
[2] = 10 μM drug, MOI 0.3, 4 days, normalized to no-drug controls in the same plate, repeat #2, read-out: OC43_2: % staining of OC43 in screen repeat #2
[3] = 10 μM drug, MOI 0.3, 4 days, OC43 staining normalized to no-drug controls, mean of the two screen repeats, read-out: OC43_mean
[4] = 10 μM drug, MOI 0.3, 4 days, OC43 staining normalized to no-drug controls, mean of the two screen repeats
[5] = 10 μM drug, MOI 0.3, 4 days, normalized to no-drug controls in the same plate, repeat #1
[6] = 10 μM drug, MOI 0.3, 4 days, normalized to no-drug controls in the same plate, repeat #2

| Structure (SMILES) | hit_1 (OC43; 10 μM drug, repeat #1) | hit_2 (OC43; 10 μM drug, repeat #2) | activity at 10 µM (OC43; [1]) [%] | activity at 10 µM (OC43; [2]) [%] | activity at 10 µM (OC43; read-out: OC43_mean) [%] | Growth_1: number of cells at day 4 divided by number of cells at day 0 (A549-mRuby cells) | toxic_1 (A549-mRuby cells) | Growth_2: number of cells at day 4 divided by number of cells at day 0 (A549-mRuby cells) | toxic_2 (A549-mRuby cells) | activity at 10 µM (OC43; [3]) [%] | Growth_1: number of cells at day 4 divided by number of cells at day 0 (A549-mRuby cells; Dihydrate) | Growth_2: number of cells at day 4 divided by number of cells at day 0 (A549-mRuby cells; Dihydrate) | OC43_mean (OC43; [4]) [%] | OC43_1: % staining of OC43 in screen repeat #1 (OC43; [5]) [%] | OC43_2: % staining of OC43 in screen repeat #2 (OC43; [6]) [%] |
| --- | --- | --- | --- | --- | --- | --- | --- | --- | --- | --- | --- | --- | --- | --- | --- |
| CCN(CCCc1ccccc1)CCCc1ccccc1 [Alverine Citrate] | 1 | 1 | 22.1 | 35.3 | 28.7 | 3.7 | 0 | 4.0 | 0 |  |  |  |  |  |  |
| CCCCc1oc2ccccc2c1C(=O)c1cc(I)c(OCCN(CC)CC)c(I)c1 [Amiodarone HCl] | 1 | 1 | 18.8 | 26.9 |  | 4.6 |  | 5.4 |  | 22.8 |  |  |  |  |  |
| CN(C)CCC=C1c2ccccc2CCc2ccccc21 [Amitriptyline HCl] | 1 | 1 | 11.2 | 34.3 |  | 3.7 | 0 | 4.1 | 0 | 22.8 |  |  |  |  |  |
| CN(C)N(C)C(=O)[C@@]1(Cc2ccccc2)CCCN(C(=O)[C@@H](Cc2c[nH]c3ccccc23)NC(=O)C(C)(C)N)C1 [Anamorelin] | 1 | 1 | 32 | 45.6 |  | 5.2 | 0 | 5.5 | 0 | 38.8 |  |  |  |  |  |
| CC[C@H]1OC(=O)[C@H](C)[C@@H](O[C@H]2C[C@@](C)(OC)[C@@H](O)[C@H](C)O2)[C@H](C)[C@@H](O[C@@H]2O[C@H](C)C[C@H](N(C)C)[C@H]2O)[C@](C)(O)C[C@@H](C)CN(C)[C@H](C)[C@@H](O)[C@]1(C)O [Azithromycin Dihydrate] | 1 | 1 | 20.5 | 15.9 |  |  | 0 |  | 0 | 18.2 | 5.4 | 5.0 |  |  |  |
| CC[C@H]1OC(=O)[C@H](C)[C@@H](O[C@H]2C[C@@](C)(OC)[C@@H](O)[C@H](C)O2)[C@H](C)[C@@H](O[C@@H]2O[C@H](C)C[C@H](N(C)C)[C@H]2O)[C@](C)(O)C[C@@H](C)CN(C)[C@H](C)[C@@H](O)[C@]1(C)O [Azithromycin] |  |  |  |  |  | 4.0 |  | 4.4 |  |  |  |  | 23.4 | 20.4 | 26.4 |
| CCC(=O)OCC(=O)[C@@]1(OC(=O)CC)[C@@H](C)C[C@H]2[C@@H]3CCC4=CC(=O)C=C[C@]4(C)[C@@]3(Cl)[C@@H](O)C[C@@]21C [Beclomethasone dipropionate] | 1 | 1 | 38.3 | 29 |  | 3.4 | 0 | 4.6 | 0 | 33.6 |  |  |  |  |  |
| CN1C2CCC1CC(OC(c1ccccc1)c1ccccc1)C2.CS(=O)(=O)O (stereo not shown) [Benztropine mesylate] | 1 | 1 | 7.4 | 12.8 |  | 4.4 | 0 | 5.1 | 0 | 10.1 |  |  |  |  |  |
| CN(C)CCCOc1nn(Cc2ccccc2)c2ccccc12 [Benzydamine HCl] | 1 | 1 | 26.2 | 25.6 |  | 4.9 | 0 | 4.6 | 0 | 25.9 |  |  |  |  |  |
| COc1ccc(NC(=O)c2ccc(C(=N)N(C)C)cc2)c(C(=O)Nc2ccc(Cl)cn2)c1 [Betrixaban maleate] | 1 | 1 | 32 | 21.8 |  | 4.6 | 0 | 5.7 | 0 | 26.9 |  |  |  |  |  |
| COc1ccc(NC(=O)c2ccc(C(=N)N(C)C)cc2)c(C(=O)Nc2ccc(Cl)cn2)c1 [Betrixaban] | 1 | 1 |  |  |  | 5.3 | 0 | 5.5 | 0 |  |  |  | 32.0 | 30.2 | 33.7 |
| CCCC1O[C@@H]2C[C@H]3[C@@H]4CCC5=CC(=O)C=C[C@]5(C)[C@H]4[C@@H](O)C[C@]3(C)[C@]2(C(=O)CO)O1 (stereo partly shown) [Budesonide] | 1 | 1 | 20.8 | 36.9 |  | 3.9 | 0 | 4.0 | 0 | 28.8 |  |  |  |  |  |
| C=C[C@H]1C[N@@]2CC[C@H]1C[C@@H]2[C@@H](O)c1ccnc2ccc(OC)cc12 [Quinidine sulfate] | 1 | 1 | 25.1 | 47.9 |  |  |  |  |  |  |  |  |  |  |  |

From US20230285405A1, “Pharmaceuticals for Treating or Preventing Nidoviruses and Picornaviruses” (priority 2020, published 2023)
